Results on 23 compounds are retold here after patent US5925642A, “Pyridopyrimidines” (Byk Gulden Lomberg Chemische Fabrik GmbH, priority 1995, dated 1999).

Where a name gives a salt, the structure may show the parent alone.

In the first assay the target is T1, p-glycoprotein (Homo sapiens, UniProt P08183).
T1 construct: Multidrug-resistant and -sensitive cells of the T-lymphoblastoid leukemia cell lines CCRF-VCR 1000 and CCRF-CEM are withdrawn from the cell culture; endogenous in cells; host or cells: CCRF-VCR 1000 (multidrug-resistant); CCRF-CEM (sensitive)
T1 sequence (P08183 whole entry): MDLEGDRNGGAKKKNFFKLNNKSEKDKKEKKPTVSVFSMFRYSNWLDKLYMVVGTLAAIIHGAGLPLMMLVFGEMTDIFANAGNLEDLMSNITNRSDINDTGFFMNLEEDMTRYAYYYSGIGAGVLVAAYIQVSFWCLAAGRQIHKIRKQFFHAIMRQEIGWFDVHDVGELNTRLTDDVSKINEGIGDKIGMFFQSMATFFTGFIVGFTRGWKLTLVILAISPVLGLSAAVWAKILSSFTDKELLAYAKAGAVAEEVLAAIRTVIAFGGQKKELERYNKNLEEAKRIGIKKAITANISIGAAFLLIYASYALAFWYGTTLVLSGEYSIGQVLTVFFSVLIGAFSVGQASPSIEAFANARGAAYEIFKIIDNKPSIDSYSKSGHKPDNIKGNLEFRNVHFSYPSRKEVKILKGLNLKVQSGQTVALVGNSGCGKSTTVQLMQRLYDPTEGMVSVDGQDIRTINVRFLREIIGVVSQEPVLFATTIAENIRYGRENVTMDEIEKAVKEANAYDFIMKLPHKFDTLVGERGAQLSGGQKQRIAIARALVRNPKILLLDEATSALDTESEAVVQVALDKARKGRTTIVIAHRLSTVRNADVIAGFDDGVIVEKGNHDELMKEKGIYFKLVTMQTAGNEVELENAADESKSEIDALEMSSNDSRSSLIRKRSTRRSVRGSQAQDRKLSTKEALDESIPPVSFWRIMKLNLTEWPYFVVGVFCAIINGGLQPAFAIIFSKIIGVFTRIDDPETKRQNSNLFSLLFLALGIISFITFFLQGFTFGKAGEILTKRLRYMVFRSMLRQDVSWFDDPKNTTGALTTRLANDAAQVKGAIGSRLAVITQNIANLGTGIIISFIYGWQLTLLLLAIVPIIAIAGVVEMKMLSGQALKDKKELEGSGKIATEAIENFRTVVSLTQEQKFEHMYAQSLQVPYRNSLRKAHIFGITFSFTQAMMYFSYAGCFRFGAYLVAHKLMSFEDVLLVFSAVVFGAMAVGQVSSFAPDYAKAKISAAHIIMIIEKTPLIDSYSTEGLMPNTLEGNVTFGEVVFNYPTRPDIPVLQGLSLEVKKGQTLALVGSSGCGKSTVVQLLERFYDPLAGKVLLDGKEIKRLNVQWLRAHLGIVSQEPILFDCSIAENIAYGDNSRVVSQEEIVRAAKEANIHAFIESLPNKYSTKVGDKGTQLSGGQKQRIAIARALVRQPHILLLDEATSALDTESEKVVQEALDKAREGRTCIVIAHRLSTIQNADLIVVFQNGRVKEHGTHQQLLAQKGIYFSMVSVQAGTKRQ
The experiment in a line: Measurement of P-glycoprotein inhibition (Rhodamine 123 accumulation). Type of assay: cell-based.
Settings: not given
The procedure: Multidrug-resistant and -sensitive cells of the T-lymphoblastoid leukemia cell lines CCRF-VCR 1000 and CCRF-CEM are withdrawn from the cell culture and harvested by centrifugation. The cells are taken up in RPMI medium (pH=7.3) without fetal calf serum and incubated at 37° C. for 30 min with the rising concentrations of resistance modulators. […] The excitation wavelength is 488 nm.
The number of the investigated compounds correspond to the numbers in the examples.
In general, EC50 refers to the concentration giving half of the maximal effect. Compound `Cc1nc2ncn(Cc3ccccc3)c(=O)c2c(-c2cccc([N+](=O)[O-])c2)c1C(=O)CCCCCCCCCCN1CCC(c2ccccc2)(c2ccccc2)CC1` [Compound 10] showed an EC50 of 25.1 nM.

Compound `Cc1nc2ncn(CCN3CCOCC3)c(=O)c2c(-c2cccc([N+](=O)[O-])c2)c1C(=O)CCCCCCCCCCN1CCC(c2ccccc2)(c2ccccc2)CC1` [Compound 12] gave an EC50 of 25.1 nM. For `Cc1nc2nc(C)n(Cc3ccccc3)c(=O)c2c(-c2cccc([N+](=O)[O-])c2)c1C(=O)CCCCCCCN1CCC(c2ccccc2)(c2ccccc2)CC1` [Compound 23], it took 50.1 nM to reach a half-maximal effect (EC50). Regarding `CCCn1cnc2nc(C)c(C(=O)CCCCCCCN3CCC(c4ccccc4)(c4ccccc4)CC3)c(-c3cccc([N+](=O)[O-])c3)c2c1=O` [Compound 3], the EC50 is 25.1 nM.

As to `CCCCCn1cnc2nc(C)c(C(=O)CCCCCCCN3CCC(c4ccccc4)(c4ccccc4)CC3)c(-c3cccc([N+](=O)[O-])c3)c2c1=O` [Compound 4], the midpoint of the response, the EC50, lay at 20 nM.

In turn, `Cc1nc2ncn(-c3ccccc3)c(=O)c2c(-c2cccc([N+](=O)[O-])c2)c1C(=O)CCCCCCCCCCN1CCC(c2ccccc2)(c2ccccc2)CC1` [Compound 9] gave a concentration for a half-maximal effect (EC50) of 63.1 nM. Compound `Cc1nc2ncn(CCCN3CCOCC3)c(=O)c2c(-c2cccc([N+](=O)[O-])c2)c1C(=O)CCCCCCCCCCN1CCC(c2ccccc2)(c2ccccc2)CC1` [Compound 17] had an EC50 of 25.1 nM. Compound `CCCCn1cnc2nc(C)c(C(=O)CCCCCCCN3CCC(c4ccccc4)(c4ccccc4)CC3)c(-c3cccc([N+](=O)[O-])c3)c2c1=O` [Compound 21] gave an EC50 of 50.1 nM. On the same count and under the same terms, as for `Cc1nc2nc(C)n(CCN3CCCCC3)c(=O)c2c(-c2cccc([N+](=O)[O-])c2)c1C(=O)CCCCCCCCCCN1CCC(c2ccccc2)(c2ccccc2)CC1` [Compound 16], the figure is 79.4 nM; as for `CCCCCn1cnc2nc(C)c(C(=O)CCCCCCCCCCN3CCC(c4ccccc4)(c4ccccc4)CC3)c(-c3cccc([N+](=O)[O-])c3)c2c1=O` [Compound 8], 31.6 nM; as for `CCCCn1cnc2nc(C)c(C(=O)CCCCCCCCCCN3CCC(c4ccccc4)(c4ccccc4)CC3)c(-c3cccc([N+](=O)[O-])c3)c2c1=O` [Compound 6], 15.8 nM. Same read-out and setting: as for `CCCn1c(C)nc2nc(C)c(C(=O)CCCCCCCN3CCC(c4ccccc4)(c4ccccc4)CC3)c(-c3cccc([N+](=O)[O-])c3)c2c1=O` [Compound 13], the figure is 50.1 nM; as for `Cc1nc2nc(C)n(CCN3CCOCC3)c(=O)c2c(-c2cccc([N+](=O)[O-])c2)c1C(=O)CCCCCCCCCCN1CCC(c2ccccc2)(c2ccccc2)CC1` [Compound 1, 3,4-Dihydro-2,7-dimethyl-3-[2-(4-morpholinyl)ethyl]-5-3-nitrophenyl)-4-oxo-6-[1-oxo-11-(4,4-diphenyl-1-piperidinyl)undecyl]-pyrido[2,3-d]pyrimidine dihydrochloride], 25.1 nM; as for `Cc1nc2ncn(Cc3ccccc3)c(=O)c2c(-c2cccc([N+](=O)[O-])c2)c1C(=O)CCCCCCCN1CCC(c2ccccc2)(c2ccccc2)CC1` [Compound 22], 39.8 nM.

In turn, `Cc1nc2nc(C)n(CCN3CCCCC3)c(=O)c2c(-c2cccc([N+](=O)[O-])c2)c1C(=O)CCCCCCCN1CCC(c2ccccc2)(c2ccccc2)CC1` [Compound 18] had a half-maximal effective concentration (EC50) of 50.1 nM. Regarding `CCCCn1c(C)nc2nc(C)c(C(=O)CCCCN3CCC(c4ccccc4)(c4ccccc4)CC3)c(-c3cccc([N+](=O)[O-])c3)c2c1=O` [Compound 19], the midpoint of the response, the EC50, lay at 100 nM. `CCCCCn1c(C)nc2nc(C)c(C(=O)CCCCCCCN3CCC(c4ccccc4)(c4ccccc4)CC3)c(-c3cccc([N+](=O)[O-])c3)c2c1=O` [Compound 14] showed an EC50 of 79.4 nM. On the same count and under the same terms, as for `CCCCn1c(C)nc2nc(C)c(C(=O)CCCCCCCN3CCC(c4ccccc4)(c4ccccc4)CC3)c(-c3cccc([N+](=O)[O-])c3)c2c1=O` [Compound 20], the figure is 31.6 nM; as for `Cc1nc2nc(C)n(CCCN3CCOCC3)c(=O)c2c(-c2cccc([N+](=O)[O-])c2)c1C(=O)CCCCCCCCCCN1CCC(c2ccccc2)(c2ccccc2)CC1` [Compound 15], 31.6 nM; as for `COc1ccc(-n2cnc3nc(C)c(C(=O)CCCCCCCCCCN4CCC(c5ccccc5)(c5ccccc5)CC4)c(-c4cccc([N+](=O)[O-])c4)c3c2=O)cc1` [Compound 11], 39.8 nM. Turning to `CCCn1cnc2nc(C)c(C(=O)CCCCCCCCCCN3CCC(c4ccccc4)(c4ccccc4)CC3)c(-c3cccc([N+](=O)[O-])c3)c2c1=O` [Compound 7], it took 50.1 nM to reach a half-maximal effect (EC50). On to `Cc1nc2nc(C)n(-c3ccccc3)c(=O)c2c(-c2cccc([N+](=O)[O-])c2)c1C(=O)CCCCCCCCCCN1CCC(c2ccccc2)(c2ccccc2)CC1` [Compound 2, 3,4-Dihydro-2,7-dimethyl-5-(3-nitrophenyl)-4-oxo-3-phenyl-6-[1-oxo-11-(4,4-diphenyl-1-piperidinyl)undecyl]pyrido[2,3-d]pyrimidine hydrochloride], for which the EC50 was 63.1 nM.

The assay is the same for the next values; noted with them: CCRF-VCR 1000 and CCRF-CEM cells; Rhodamine 123 0.8 mg/l; 30 min preincubation, 1 h at 37° C.; RPMI without fetal calf serum, pH 7.3.
The pEC50 is the negative decadic logarithm of the EC50, by convention in mol/L. Read a high pEC50 as a small EC50. On to `Cc1nc2nc(C)n(CCN3CCOCC3)c(=O)c2c(-c2cccc([N+](=O)[O-])c2)c1C(=O)CCCCCCCN1CCC(c2ccccc2)(c2ccccc2)CC1` [Compound 5], for which the pEC50 was found to be 6.8.
